This is an account of results in patent US4617290A, “Synergistine derivatives, their preparation and pharmaceutical compositions containing them” (Rhone-Poulenc Sante, priority 1983, dated 1986).

The format of the series is physicochemical. The procedure: The new compounds of the invention have the considerable advantage of being soluble or capable of being solubilized in water, either in the form of parent substances or in the form of salts, at therapeutically useful levels, while at the same time retaining the general spectrum of antibacterial activity of synergistines. They are especially active in vitro against Staphylococcus aureus Smith at concentrations of between 8 and 125 μg/ml. A 10% aqueous solution of 5γ-deoxy-5γ-(3-dimethylaminopropyl)aminopristinamycin IA (product A) in the form of the hydrochloride is obtained with: […]

As for “5γ-[N-(carboxymethyl)-methylamino]-5γ-deoxypristinamycin IA [product K]”, the “concentration of aqueous solution obtained” value is reported as 2%.
